Results reported in the CheMixHub viscosity set.

Test: xn = mol fraction of the nth substance listed

CC(=O)O + Cc1cccc(C)c1
viscosity [mPa·s], 101.3 kPa
Conditions	x2 = 0.1087	x2 = 0.218	x2 = 0.2726	x2 = 0.3467	x2 = 0.4518	x2 = 0.5763	x2 = 0.6567	x2 = 0.7671	x2 = 0.8589
298.15 K	0.952	0.809	0.753	0.7	0.648	0.618	0.603	0.591	0.579
303.15 K	0.861	0.746	0.707	0.655	0.615	0.582	0.568	0.554	0.545
313.15 K	0.777	0.665	0.624	0.58	0.543	0.519	0.507	0.501	0.494
323.15 K	0.687	0.59	0.554	0.518	0.483	0.466	0.459	0.451	0.444

CCNc1ccccc1 + Brc1ccccc1
viscosity [mPa·s], 101 kPa
Conditions	303.15 K	308.15 K
x1 = 0.0714	1.056	0.995
x1 = 0.1264	1.092	1.023
x1 = 0.1965	1.139	1.06
x1 = 0.2605	1.183	1.095
x1 = 0.3365	1.237	1.137
x1 = 0.3956	1.28	1.171
x1 = 0.4958	1.352	1.229
x1 = 0.5606	1.399	1.268
x1 = 0.6429	1.46	1.319
x1 = 0.7152	1.514	1.364
x1 = 0.7825	1.565	1.407
x1 = 0.8628	1.628	1.46
x1 = 0.9205	1.675	1.499

CCC[N+](C)(C)C.O=S(=O)([N-]S(=O)(=O)C(F)(F)F)C(F)(F)F + CCC[N+]1(C)CCCCC1.O=S(=O)([N-]S(=O)(=O)C(F)(F)F)C(F)(F)F
101.3 kPa
Conditions	viscosity [mPa·s]
298.15 K, x1 = 0.8	88.1
303.15 K, x1 = 0.8	69.7
308.15 K, x1 = 0.2	78.3
308.15 K, x1 = 0.6	63.6
308.15 K, x1 = 0.8	56.2
313.15 K, x1 = 0.2	62.4
313.15 K, x1 = 0.4	56.9
313.15 K, x1 = 0.6	51.5
318.15 K, x1 = 0.2	50.5

ClCCl + CCCCCC
298 K, 101 kPa
Conditions	viscosity [mPa·s]
x2 = 0.1331	0.386
x2 = 0.2381	0.367
x2 = 0.3208	0.354
x2 = 0.3873	0.346
x2 = 0.4407	0.34
x2 = 0.4419	0.34
x2 = 0.4746	0.335
x2 = 0.4862	0.335
x2 = 0.5144	0.333
x2 = 0.5244	0.332
x2 = 0.5599	0.329
x2 = 0.6138	0.324
x2 = 0.6791	0.32
x2 = 0.7601	0.314
x2 = 0.8633	0.308

CCNc1ccccc1 + CC(C)CO
viscosity [mPa·s], 101 kPa
Conditions	303.15 K	308.15 K
x1 = 0.0756	2.789	2.414
x1 = 0.1356	2.742	2.38
x1 = 0.1958	2.695	2.348
x1 = 0.2654	2.637	2.307
x1 = 0.3214	2.588	2.27
x1 = 0.3956	2.517	2.215
x1 = 0.4565	2.454	2.16
x1 = 0.5202	2.384	2.106
x1 = 0.6021	2.284	2.029
x1 = 0.6745	2.194	1.956
x1 = 0.7325	2.116	1.889
x1 = 0.8025	2.019	1.811
x1 = 0.8869	1.903	1.714

CC(=O)O + CCC(C)=O
viscosity [mPa·s], 101 kPa
Conditions	x1 = 0.1006	x1 = 0.2003	x1 = 0.3011	x1 = 0.4019	x1 = 0.5031	x1 = 0.6006	x1 = 0.7023	x1 = 0.7985	x1 = 0.8986
298.15 K	0.4312	0.4737	0.5266	0.5832	0.6507	0.7259	0.8152	0.9085	1.013
308.15 K	0.3905	0.4255	0.4697	0.5173	0.573	0.6346	0.7132	0.7902	0.879
318.15 K	0.3521	0.3832	0.4196	0.4601	0.5058	0.559	0.6203	0.6845	0.7622

CCCC[n+]1ccn(C)c1.N[C@@H](CCC(=O)O)C(=O)[O-] + CO
Conditions	viscosity [mPa·s]
313.15 K, 101 kPa, x1 = 0.7005	19.95

ClCCl + CCCCn1cc[n+](C)c1.F[B-](F)(F)F
Conditions	viscosity [mPa·s]
298.15 K, 101 kPa, x1 = 0.1	84.5
